The source of these data is article PMC8424217 (The Journal of Biological Chemistry, 2021).

SMILES strings stand for the structures. Peptide text beside a SMILES is read from it. * marks the point of attachment. Palmitoyl = CCCCCCCCCCCCCCCC(=O)*

One series deals with T1, rat thoracic aorta rings (Rattus norvegicus, UniProt P49684).
T1 sequence (P49684 1-386): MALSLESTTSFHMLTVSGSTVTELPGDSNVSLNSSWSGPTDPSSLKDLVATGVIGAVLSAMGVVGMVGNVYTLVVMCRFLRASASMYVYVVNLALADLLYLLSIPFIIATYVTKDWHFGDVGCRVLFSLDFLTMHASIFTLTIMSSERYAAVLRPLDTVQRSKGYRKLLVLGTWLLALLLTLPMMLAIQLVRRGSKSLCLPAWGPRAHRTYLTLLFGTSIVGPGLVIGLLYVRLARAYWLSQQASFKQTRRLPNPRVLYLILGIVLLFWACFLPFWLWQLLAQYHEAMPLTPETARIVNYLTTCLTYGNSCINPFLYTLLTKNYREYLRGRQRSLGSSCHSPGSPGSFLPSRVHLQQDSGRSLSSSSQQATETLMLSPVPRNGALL
The series is described as follows: Modulation of URP-mediated rat aortic ring contraction. To be noted: pepducin 10^−6 M 30 min prior to URP, percentage of KCl (40 mM) contraction divided by tissue response to URP (10^−6 M), mean ± SEM, n = 5, read-out: URP Emax after pepducin pretreatment. Here is the method: Each replicate (n) was conducted on tissue obtained from at least three different animals. Data represent mean ± SEM.
Adult male Sprague-Dawley rats (Charles-River) weighing 250–300 g were housed in cages under controlled illumination (12:12 h light–dark cycle), humidity, and temperature (21–23 °C) and had free access to tap water and rat chow. All experimental procedures were performed in accordance with regulations and ethical guidelines from the Canadian Council for the Care of Laboratory Animals and received approvals of the institutional animal care and use committee of the Institut National de la Recherche Scientifique—Centre Armand-Frappier Santé Biotechnologie. As previously described ([17], [18]), the thoracic aorta was cleared of surrounding tissue and then excised from the aortic arch to the diaphragm. Conjunctive tissues were next removed from the thoracic aorta and the vessels were divided into five rings of 4 mm. The endothelium of each aortic ring was removed by gently rubbing the vessel intimal surface. Aortic rings were then placed in a 5 ml organ bath filled with oxygenated normal Krebs–Henseleit buffer. Eighty microliters of a 2.5 M potassium chloride solution (40 mM final concentration) was used to evaluate maximal contractile responses of each vessel. […] Cumulative concentration–response curves to synthetic peptides were obtained by increasing the concentration of each peptide in the remaining organ chambers (10^−11–10^−5 M).

Series [1] can be described thus: Solution NMR conformational analysis in DPC micelles. The series is classed as physicochemical. To be noted: pH 5.5, 25 °C, restrained MD calculations. The procedure:
Samples for NMR spectroscopy were prepared by dissolving the appropriate amount of peptide in 0.54 ml of ^1H2O (pH 5.5), 0.06 ml of ^2H2O to obtain a final DPC-d38 concentration of 2 mM and 200 mM. NMR spectra were recorded on a Varian INOVA 700 MHz spectrometer equipped with a z-gradient 5 mm triple-resonance probe head. All spectra were recorded at a temperature of 25 °C and were calibrated relative to TSP (0.00 ppm) as internal standard. One-dimensional (1D) NMR spectra were recorded in the Fourier mode with quadrature detection. The water signal was suppressed by gradient echo ([70]). Two dimensional (2D) DQF-COSY ([71], [72]), TOCSY ([73]), and NOESY ([74]) spectra were recorded in the phase-sensitive mode as described ([75]). Data block sizes were 2048 addresses in t2 and 512 equidistant t1 values. […] The qualitative and quantitative analyses of DQF-COSY, TOCSY, and NOESY spectra were obtained using the interactive program package XEASY ([76]). Complete ^1H NMR chemical shift assignments were effectively achieved for hUT-Pep2 and [Trp^1, Leu^2]hUT-Pep3 according to the Wüthrich procedure ([77]) via the usual systematic application of DQF-COSY, TOCSY, and NOESY experiments with the support of the XEASY software package (Tables S1 and S3). ^3JαN coupling constants were measured by 1D proton and DQF-COSY spectra. […]

One may read the Emax as the greatest response seen or fitted, relative to the assay's reference.

Turning to `CCCCCCCCCCCCCCCC(=O)N[C@@H](CCCNC(=N)N)C(=O)N1CCC[C@H]1C(=O)N[C@@H](CC(C)C)C(=O)N[C@@H](CC(=O)O)C(=O)N[C@H](C(=O)N[C@H](C(=O)N[C@@H](CCC(N)=O)C(=O)N[C@@H](CCCNC(=N)N)C(=O)N1CCC[C@H]1C(=O)N[C@@H](CCCCN)C(=O)NCC(=O)N[C@@H](Cc1ccc(O)cc1)C(N)=O)C(C)C)[C@@H](C)O` [hUT-Pep2] (Palmitoyl-RPLDTVQRPKGY-NH2), on rat thoracic aorta rings, the Emax was 76 ± 8%. In series [1], the “conformation by NMR” value was “two type I β-turns along residues 1–4 and 3–6 and three distorted (type IV) β-turns along residues 4–7, 5–8, and 6–9”.
`CCCCCCCCCCCCCCCC(=O)N[C@@H](Cc1c[nH]c2ccccc12)C(=O)N[C@@H](CC(C)C)C(=O)N[C@@H](CO)C(=O)N[C@@H](CCC(N)=O)C(=O)N[C@@H](CCCNC(=N)N)C(=O)N[C@@H](C)C(=O)N[C@@H](CO)C(=O)N[C@@H](Cc1ccccc1)C(=O)N[C@@H](CCCCN)C(=O)N[C@@H](CCCNC(=N)N)C(=O)N[C@@H](C)C(=O)N[C@@H](CCCNC(=N)N)C(=O)N[C@@H](CCCNC(=N)N)C(N)=O` [[Trp^1, Leu^2]hUT-Pep3] (Palmitoyl-WLSQRASFKRARR-NH2): the maximal response (Emax) at rat thoracic aorta rings was found to be 16 ± 2%. In addition, the “conformation by NMR” value in series [1] was “high tendency of [Trp^1, Leu^2]hUT-Pep3 to fold into a helix”.
